Results as given in patent US20100160255A1, “SPIRO-CYCLIC COMPOUND” (Takeda Pharmaceutical Company Limited, priority 2005, published 2010).
pIC50: −log10 of the molar value.

How the values were obtained:
[1] = target: T1, human ACC1 (Homo sapiens, UniProt Q13085); assay: ACC1 inhibitory activity (malachite green absorbance assay, recombinant enzyme); type: biochemical; settings: Table 8; recombinant human ACC1; 30° C.; absorbance 620 nm; read-out: IC50 (ACC1 inhibitory activity)
T1 construct: made in house; host or cells: SF-9 insect cells, recombinant baculovirus BAC-ACC1
Experimental: The ACC1 inhibitory activity of the compound of the present invention was evaluated by the following method.
(§1) Human ACC1 gene was cloned by PCR using human liver cDNA library (Clontech) as a template, and Primer 1 and Primer 2 shown below. Primer 1 and Primer 2 were prepared by adding recognition sequence of restriction enzymes SalI and NotI based on the information of the base sequence (Genbank Accession U19822) of human ACC1 gene.
(§2) PCR was performed using Pyrobest DNA polymerase (TAKARA BIO INC.). The obtained PCR product was cloned to pT7 Blue vector (Novagen) which was, after confirmation of the base sequence, digested with restriction enzymes SalI and NotI. The obtained DNA fragment was inserted into pFAST-BacHTc (Invitrogen) digested with restriction enzymes SalI and NotI to give expression plasmid ACC1/pFAST-BacHTc.
Using the expression plasmid and BAC-TO-BAC Baculovirus Expression System (Invitrogen), virus stock BAC-ACC1 of recombinant Baculovirus was prepared.
(§3) SF-9 cells (Invitrogen) were sown at 1×10^6 cells/mL to insect cell culture medium (1 L, Sf-900II SFM medium (Invitrogen) containing 10% fetal bovine serum (Trace), 50 mg/L gentamicin (Invitrogen) and 0.1% Pluronic F-68 (Invitrogen)), and shaking culture was performed using a 2 L volume Erlenmeyer flask at 27° C., 100 rpm.
After culturing for 24 hr, the recombinant Baculovirus BAC-ACC1 (10 mL) was added, and the mixture was further cultured for 3 days. The culture medium was centrifuged at 1000×g for 5 min to give virus-infected cells. The infected cells were washed with phosphate buffered saline (Invitrogen) and centrifuged under the same conditions, and the obtained cells were cryopreserved at −80° C.
The cryopreserved cells were thawed in ice, suspended in 25 mM HEPES buffer (100 mL, pH 7.5) containing 10% Glycerol, 0.13 M NaCl, 1 mM EDTA, 25 mM sodium β-glycerophosphate, 1 mM sodium orthovanadate, added with Complete Protease Inhibitor (Boehringer). The obtained suspension was homogenized 3 times with a Polytron homogenizer (Kinematica) at 20,000 rpm for 30 seconds. The obtained cell disrupt solution was clarified by centrifugation at 185700×g for 50 min and filtrated using a 0.45 μm filter. The filtrate was passed through a column packed with Ni-NTA Super Flow Gel (QIAGEN, 12 mL) at a flow rate of about 5 mL/min. The column was washed with buffer A (50 mM HEPES containing 0.3M NaCl, pH 7.5), further washed with buffer A containing 20 mM Imidazole, and eluted with buffer A containing 100 mM Imidazole. The eluate was concentrated with Vivaspin 20 (Vivascience) having a molecular weight cut off of 30 K. The obtained concentrate was dialyzed using Sephadex G-25 (Amersham Bioscience K.K., 358 mL) equilibrated with 50 mM HEPES (pH7.5) containing 10 mM MgCl2, 2 mM dithiothreitol, 10 mM tripotassium citrate and 0.3M NaCl. The dialysate was concentrated with Vivaspin 20 (Vivascience) having a molecular weight cut off of 30 K and the concentrate was filtered through a 0.22 μm filter to give ACC1. The obtained ACC1 was cryopreserved at −80° C.
ACC1 (0.93 mg/ml) obtained in (2) above was diluted to a concentration of 8 μg/ml with an enzyme reaction buffer (50 mM HEPES (pH7.5), 10 mM MgCl2, 10 mM tripotassium citrate, 2 mM dithiothreitol, 0.75 mg/ml fatty acid free BSA), and added to each well of a 384 well assay plate (Nunc 265196) by 10 μl. […]

[2] = target: T2, human ACC2 (Homo sapiens, UniProt O00763); assay: ACC2 inhibitory activity (malachite green absorbance assay, recombinant ACC2(Nd)); type: biochemical; settings: Table 9; recombinant human ACC2(Nd), N terminal deletion; 30° C.; absorbance 620 nm; read-out: IC50 (ACC2 inhibitory activity)
T2 construct: made in house; host or cells: SF-9 insect cells, recombinant baculovirus BAC-ACC2(Nd)
Experimental: The ACC2 inhibitory activity of the compound of the present invention was evaluated by the following method.
as §1, with “ACC2” for “ACC1”, “skeletal muscle” for “liver”, “XbaI” for “NotI”, “U89344)” for “U19822)”
as §2, with “XbaI.” for “NotI.”, “pFAST-BacHTa” for “pFAST-BacHTc”, “XbaI” for “NotI”, “ACC2/pFAST-BacHTa.” for “ACC1/pFAST-BacHTc.”
A plasmid for expression of ACC2 free of mitochondrial targeting sequence was prepared by PCR using the expression plasmid as a template, and Primer 3 and Primer 4 shown below.
as §2, with “AflII.” for “NotI.”, “pFAST-BacHTa” for “pFAST-BacHTc”, “AflII” for “NotI”, “ACC2mito7/pFAST-BacHTa.” for “ACC1/pFAST-BacHTc.”
Using the expression plasmid and BAC-TO-BAC Baculovirus Expression System (Invitrogen), virus stock BAC-ACC2 of recombinant Baculovirus (N terminal deletion (hereinafter Nd)) was prepared.
as §3, with “0.5×10^6” for “1×10^6”, “(2” for “(1”, “Wave Bioreactor (Wave) under the conditions of” for “2 L volume Erlenmeyer flask at”, “20 rpm, rocking angle of 6° and oxygen concentration of 30%.” for “100 rpm.”
On day 4 of the culture, 3 L of an insect cell culture medium was added, the rocking angle was set to 8°, and the cells were further cultured. On day 5 of the culture, the recombinant Baculovirus BAC-ACC2(Nd) (100 mL) was added, 5 L of the insect cell culture medium was further added, the rocking angle was set to 11°, and the cells were cultured for 3 days. The culture medium was centrifuged at 1000×g for 10 min to give virus-infected cells. The infected cells were washed with phosphate buffered saline (Invitrogen) and centrifuged under the same conditions, and the obtained cells were cryopreserved at −80° C.
The cryopreserved cells were thawed in ice, suspended in 25 mM HEPES buffer (900 mL, pH 7.5) containing 10% Glycerol, 0.13 M NaCl, 1 mM EDTA, 25 mM sodium β-glycerophosphate, 1 mM sodium orthovanadate, added with Complete Protease Inhibitor (Boehringer). The obtained suspension was homogenized 3 times with a Polytron homogenizer (Kinematica) at 20,000 rpm for 30 seconds. The obtained cell disrupt solution was clarified by centrifugation at 31000×g for 60 min and filtrated using a 0.45 μm filter. The filtrate was passed through a column packed with Ni-NTA Super Flow Gel (QIAGEN, 60 mL) at a flow rate of about 5 mL/min. The column was washed with buffer A (50 mM HEPES containing 0.3M NaCl, pH 7.5), further washed with buffer A containing 20 mM Imidazole, and eluted with buffer A containing 100 mM Imidazole. The eluate was concentrated with Vivaspin 20 (Vivascience) having a molecular weight cut off of 30 K. The obtained concentrate was dialyzed against 50 mM HEPES (pH7.5) containing 10 mM MgCl2, 2 mM dithiothreitol, 10 mM tripotassium citrate and 0.3M NaCl. The dialysate was filtered through a 0.22 μm filter to give ACC2(Nd). The obtained ACC2(Nd) was cryopreserved at −80° C. […]

T2 sequence (O00763 117-2458 limits assumed): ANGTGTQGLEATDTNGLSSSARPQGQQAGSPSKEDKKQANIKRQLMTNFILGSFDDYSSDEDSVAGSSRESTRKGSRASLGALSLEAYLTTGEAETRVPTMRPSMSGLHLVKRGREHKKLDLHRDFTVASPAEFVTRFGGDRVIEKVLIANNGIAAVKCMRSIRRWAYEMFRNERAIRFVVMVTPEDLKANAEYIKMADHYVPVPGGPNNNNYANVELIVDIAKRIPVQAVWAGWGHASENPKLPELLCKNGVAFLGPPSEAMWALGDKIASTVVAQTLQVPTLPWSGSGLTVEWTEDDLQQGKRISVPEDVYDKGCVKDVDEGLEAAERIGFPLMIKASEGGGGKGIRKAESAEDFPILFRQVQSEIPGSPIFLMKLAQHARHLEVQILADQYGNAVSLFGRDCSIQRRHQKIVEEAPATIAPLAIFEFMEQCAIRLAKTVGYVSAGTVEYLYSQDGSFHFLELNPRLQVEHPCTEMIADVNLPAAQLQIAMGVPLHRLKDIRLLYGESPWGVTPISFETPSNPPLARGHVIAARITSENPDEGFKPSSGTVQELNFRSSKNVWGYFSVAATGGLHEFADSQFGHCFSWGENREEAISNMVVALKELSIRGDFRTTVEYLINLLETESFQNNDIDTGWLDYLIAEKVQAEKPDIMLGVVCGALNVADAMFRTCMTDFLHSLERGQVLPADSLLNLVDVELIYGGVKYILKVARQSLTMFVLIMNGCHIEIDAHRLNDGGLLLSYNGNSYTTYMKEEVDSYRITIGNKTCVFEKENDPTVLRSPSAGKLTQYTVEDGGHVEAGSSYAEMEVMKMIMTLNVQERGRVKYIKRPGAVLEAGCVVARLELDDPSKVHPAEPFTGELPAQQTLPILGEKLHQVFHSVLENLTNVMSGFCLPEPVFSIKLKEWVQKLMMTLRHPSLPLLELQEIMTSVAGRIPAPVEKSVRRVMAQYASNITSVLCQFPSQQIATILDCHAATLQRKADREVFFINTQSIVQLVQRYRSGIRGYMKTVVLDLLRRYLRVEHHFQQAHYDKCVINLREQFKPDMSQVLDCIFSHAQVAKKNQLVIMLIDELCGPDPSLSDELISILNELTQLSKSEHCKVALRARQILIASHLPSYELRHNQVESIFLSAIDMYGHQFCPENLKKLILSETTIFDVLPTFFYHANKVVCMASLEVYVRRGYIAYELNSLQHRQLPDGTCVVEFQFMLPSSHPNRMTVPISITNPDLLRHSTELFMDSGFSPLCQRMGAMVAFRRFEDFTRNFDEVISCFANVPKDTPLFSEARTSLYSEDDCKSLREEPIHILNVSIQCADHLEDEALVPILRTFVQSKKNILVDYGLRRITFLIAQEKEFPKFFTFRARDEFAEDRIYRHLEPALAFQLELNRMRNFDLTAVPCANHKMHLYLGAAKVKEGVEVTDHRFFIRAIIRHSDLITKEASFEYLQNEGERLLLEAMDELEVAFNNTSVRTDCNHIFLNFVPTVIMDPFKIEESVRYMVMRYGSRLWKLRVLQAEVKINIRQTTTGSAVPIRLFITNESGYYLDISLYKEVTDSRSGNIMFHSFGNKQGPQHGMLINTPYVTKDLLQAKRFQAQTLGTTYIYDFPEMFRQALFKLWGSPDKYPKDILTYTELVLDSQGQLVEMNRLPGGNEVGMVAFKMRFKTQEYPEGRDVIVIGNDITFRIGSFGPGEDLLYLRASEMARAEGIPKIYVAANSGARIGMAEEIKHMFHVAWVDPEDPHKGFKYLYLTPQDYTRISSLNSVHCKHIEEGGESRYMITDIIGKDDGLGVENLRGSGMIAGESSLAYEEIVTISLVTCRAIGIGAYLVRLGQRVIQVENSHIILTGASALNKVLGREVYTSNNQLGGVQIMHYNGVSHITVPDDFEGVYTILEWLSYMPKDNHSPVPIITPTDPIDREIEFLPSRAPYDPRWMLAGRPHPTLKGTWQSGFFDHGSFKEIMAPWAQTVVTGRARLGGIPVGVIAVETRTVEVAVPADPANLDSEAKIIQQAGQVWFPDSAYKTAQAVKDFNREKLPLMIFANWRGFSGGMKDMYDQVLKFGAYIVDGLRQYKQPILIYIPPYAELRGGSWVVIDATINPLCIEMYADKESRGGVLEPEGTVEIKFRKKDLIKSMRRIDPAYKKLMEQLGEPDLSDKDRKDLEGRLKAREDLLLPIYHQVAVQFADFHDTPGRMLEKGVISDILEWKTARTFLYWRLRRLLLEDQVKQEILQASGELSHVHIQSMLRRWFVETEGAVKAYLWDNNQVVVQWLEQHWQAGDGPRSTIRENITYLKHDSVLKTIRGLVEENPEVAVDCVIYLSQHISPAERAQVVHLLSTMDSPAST

| pIC50 [1] | pIC50 [2] | SMILES |
| --- | --- | --- |
| 5.85 | 7.05 | CCNC(=O)Nc1cnc(-c2ccccc2)cc1C(=O)N1CCC(N2CCCC3(C2)CC(C)(C)OC3=O)CC1 (stereo not shown) [Example 301, N-(4-{[4-(3,3-dimethyl-1-oxo-2-oxa-7-azaspiro[4.5]dec-7-yl)piperidin-1-yl]carbonyl}-6-phenylpyridin-3-yl)-N′-ethylurea] |
| 6.59 | 7.51 | CC(C)N1C(=O)OC2(CCCN(C3CCN(C(=O)c4c(NC(N)=O)sc5ccccc45)CC3)C2)C1=O (stereo not shown) [Example 335, N-(3-{[4-(3-isopropyl-2,4-dioxo-1-oxa-3,7-diazaspiro[4.5]dec-7-yl)piperidin-1-yl]carbonyl}-1-benzothien-2-yl)urea] |
| 6.54 | 7.39 | CCCN1CCC2(CCCN(C3CCN(C(=O)c4c(NC(N)=O)sc5ccccc45)CC3)C2)C1=O (stereo not shown) [Example 352, N-(3-{[4-(1-oxo-2-propyl-2,7-diazaspiro[4.5]dec-7-yl)piperidin-1-yl]carbonyl}-1-benzothien-2-yl)urea] |
| 6.47 | 7.25 | CCN1C(=O)CC2(CCCN(C3CCN(C(=O)c4c(NC(=O)NC)sc5ccccc45)CC3)C2)C1=O (stereo not shown) [Example 363, N-(3-{[4-(2-ethyl-1,3-dioxo-2,7-diazaspiro[4.5]dec-7-yl)piperidin-1-yl]carbonyl}-1-benzothien-2-yl)-N′-methylurea] |
| 6.74 | 7.74 | CC(C)N1C(=O)CC2(CCCN(C3CCN(C(=O)c4c(NC(N)=O)sc5ccccc45)CC3)C2)C1=O (stereo not shown) [Example 366, N-(3-{[4-(2-isopropyl-1,3-dioxo-2,7-diazaspiro[4.5]dec-7-yl)piperidin-1-yl]carbonyl}-1-benzothien-2-yl)urea] |

Continued, compound first:

| SMILES | pIC50 [1] | pIC50 [2] |
| --- | --- | --- |
| CCNC(=O)Nc1sc(-c2ccccn2)cc1C(=O)N1CCC(N2CCCC3(C2)OC(=O)N(CC)C3=O)CC1 (stereo not shown) [Example 245, 1-ethyl-3-(3-{[4-(3-ethyl-2,4-dioxo-1-oxa-3,7-diazaspiro[4.5]dec-7-yl)piperidin-1-yl]carbonyl}-5-(pyridin-2-yl)-2-thienyl)urea] | 6.01 | 7.34 |
| CCNC(=O)Nc1sc2ccccc2c1C(=O)N1CCC(N2CCCC3(CC(=O)NC3=O)C2)CC1 (stereo not shown) [Example 311, N-(3-{[4-(1,3-dioxo-2,7-diazaspiro[4.5]dec-7-yl)piperidin-1-yl]carbonyl}-1-benzothien-2-yl)-W-ethylurea] | 6.40 | 7.51 |
| CCNC(=O)Nc1sc2ccccc2c1C(=O)N1CCC(N2CCCC3(C2)OC(=O)N(CC)C3=O)CC1 (stereo not shown) [Example 327, N-ethyl-N′-(3-{[4-(3-ethyl-2,4-dioxo-1-oxa-3,7-diazaspiro[4.5]dec-7-yl)piperidin-1-yl]carbonyl}-1-benzothien-2-yl)urea] | 6.70 | 7.72 |
| CCN1CCC2(CCCN(C3CCN(C(=O)c4c(NC(=O)NC)sc5ccccc45)CC3)C2)C1=O (stereo not shown) [Example 339, N-(3-{[4-(2-ethyl-1-oxo-2,7-diazaspiro[4.5]dec-7-yl)piperidin-1-yl]carbonyl}-1-benzothien-2-yl)-N′-methylurea] | 6.52 | 7.35 |
| CCN1C(=O)CC2(CCCN(C3CCN(C(=O)c4c(NC(N)=O)sc5ccccc45)CC3)C2)C1=O (stereo not shown) [Example 340, 1-(3-{[4-(2-ethyl-1,3-dioxo-2,7-diazaspiro[4.5]dec-7-yl)piperidin-1-yl]carbonyl)-1-benzothien-2-yl)urea] | 6.89 | 7.66 |
| CCCN1C(=O)OC2(CCCN(C3CCN(C(=O)c4c(NC(N)=O)sc5ccccc45)CC3)C2)C1=O (stereo not shown) [Example 343, N-(3-{[4-(2,4-dioxo-3-propyl-1-oxa-3,7-diazaspiro[4.5]dec-7-yl)piperidin-1-yl]carbonyl}-1-benzothien-2-yl)urea] | 6.47 | 7.52 |
| CCN1C(=O)OC2(CCCN(C3CCN(C(=O)c4c(NC(=O)NC)sc5ccccc45)CC3)C2)C1=O (stereo not shown) [Example 347, N-(3-{[4-(3-ethyl-2,4-dioxo-1-oxa-3,7-diazaspiro[4.5]dec-7-yl)piperidin-1-yl]carbonyl)-1-benzothien-2-yl)-N′-methylurea] | 6.51 | 7.47 |
| CNC(=O)Nc1sc2ccccc2c1C(=O)N1CCC(N2CCCC3(CCN(C(C)C)C3=O)C2)CC1 (stereo not shown) [Example 360, N-(3-{[4-(2-isopropyl-1-oxo-2,7-diazaspiro[4.5]dec-7-yl)piperidin-1-yl]carbonyl}-1-benzothien-2-yl)-N′-methylurea] | 6.96 | 7.66 |
| CCNC(=O)Nc1sc2ccccc2c1C(=O)N1CCC(N2CCCC3(CC(=O)N(C)C3=O)C2)CC1 (stereo not shown) [Example 380, N-ethyl-N′-(3-{[4-(2-methyl-1,3-dioxo-2,7-diazaspiro[4.5]dec-7-yl)piperidin-1-yl]carbonyl}-1-benzothien-2-yl)urea] | 6.68 | 7.35 |
